Measured values from US4649147A, “Treating elastin degradation with 1-(alkenoyl)azacycloalkyl carboxylic acids and derivatives” (G. D. Searle & Co., priority 1985, dated 1987).

Assays:
[1] = biological target: mammalian prolyl-4-hydroxylase (Homo sapiens, UniProt P13674); experiment: In vitro prolyl-4-hydroxylase inhibition; assay type: biochemical; details: purified mammalian enzyme
Source text: Fibrosis is a connective tissue disease characterized by overaccumulation of extracellular fibrous matrix components, particularly collagen. Since prolyl hydroxylation is required for active secretion and thermal stability of collagen, fibrosis could be treated by inhibitors of prolyl-4-hydroxylase, such as the compounds of this invention. See G. C. Fuller, J. Med. Chem., 24, 651-658 (1981). The following procedure is used to test the compounds in vitro for prolyl-4-hydroxylase inhibition.
Purified mammalian prolyl-4-hydroxylase [EC 1.14.11.2:prolyl-glycyl-peptide, 2-oxyglutarate: oxidoreductase] is incubated with substrates (i.e., native unhydroxylated collagen of either 60,000 molecular weight, Km 10^-8 M; or 90,000 molecular weight, Km 10^-11 M), α-ketoglutarate, oxygen, and enzyme cofactors, with or without the test compounds. End-point is determined by measuring release of tritiated water during the hydroxylation of H^3 -peptidyl proline or release of ^14 CO2 formed from the coupled decarboxylation of ^14 C-α-ketoglutarate. Data are reported as percent inhibition with test compound at a given concentration relative to the control assays without test compound.

human leukocyte elastase = biological target: T1, human leukocyte elastase (Homo sapiens, UniProt P08246); experiment: Inhibition of hydrolysis of methoxysuccinyl-ala-ala-pro-val-nitroanilide by human leukocyte elastase; assay type: biochemical; details: for IC50: human leukocyte elastase, MSN substrate
T1 sequence (P08246 30-267): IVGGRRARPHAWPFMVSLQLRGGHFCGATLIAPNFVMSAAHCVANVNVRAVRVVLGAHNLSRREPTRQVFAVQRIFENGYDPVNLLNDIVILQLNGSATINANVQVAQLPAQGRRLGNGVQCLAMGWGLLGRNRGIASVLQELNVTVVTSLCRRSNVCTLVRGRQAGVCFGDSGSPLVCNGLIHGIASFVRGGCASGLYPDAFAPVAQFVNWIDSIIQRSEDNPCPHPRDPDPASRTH
Source text: The compounds useful in practicing the method of the invention are inhibitors of leucocyte elastase and cathepsin G. Since elastase is involved in the breakdown of elastin and subsequently involved in a number of disease states, a compound which blocks the action of elastase will be useful in the management, treatment and prevention of such diseases. […] Nakajima, K., et al., J. Biol. Chem., 254, 4027 (1979). This is useful in measuring inhibition of elastase because the hydrolysis of MSN is easily quantitated by measuring the release of p-nitroaniline spectrophotometrically. Therefore, the degree of elastase inhibition can be readily measured by noting the rate of inhibition of the hydrolysis of MSN. The compounds of the invention are therefore tested in vitro as follows. The rate of hydrolysis of methoxysuccinyl-ala-ala-pro-val-nitroanalide by human leukocyte elastase is monitored spectrophotometrically in the presence and absence of test compound. The inhibition of the enzymatic reaction by 20% or more at a given concentration of test compound is taken as positive inhibition of elastase. IC50 values are then determined.

[2] = test system: bleomycin-induced lung fibrosis; experiment: Bleomycin-induced lung fibrosis in male syrian hamsters; assay type: in vivo, syrian hamster; details: 100 mg/kg, day 21 relative to untreated animals
Source text: The procedure described by Kelley et al., J. Lab. Clin. Med., 96, 954-964 (1980), is used to test the compounds in vivo for activity against bleomycin-induced lung fibrosis in male syrian hamsters. […] Activities are reported as percent inhibitions at day 21 relative to untreated animals.

mammalian prolyl-4-hydroxylase, sequence (P13674 18-534): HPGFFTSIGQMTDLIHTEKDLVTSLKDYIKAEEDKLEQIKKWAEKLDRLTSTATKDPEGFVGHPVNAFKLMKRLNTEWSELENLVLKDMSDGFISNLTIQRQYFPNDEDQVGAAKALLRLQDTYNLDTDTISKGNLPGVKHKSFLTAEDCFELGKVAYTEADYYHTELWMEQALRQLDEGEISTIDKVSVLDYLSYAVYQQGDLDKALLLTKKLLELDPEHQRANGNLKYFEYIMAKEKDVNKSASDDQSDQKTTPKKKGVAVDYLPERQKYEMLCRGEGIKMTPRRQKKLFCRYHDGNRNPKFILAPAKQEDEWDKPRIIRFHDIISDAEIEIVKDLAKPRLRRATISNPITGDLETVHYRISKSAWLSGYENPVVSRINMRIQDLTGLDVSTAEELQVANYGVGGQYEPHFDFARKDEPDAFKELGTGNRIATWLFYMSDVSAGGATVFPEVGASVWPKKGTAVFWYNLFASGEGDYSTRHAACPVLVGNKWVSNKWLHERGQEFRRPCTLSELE
mammalian prolyl-4-hydroxylase, sequence (P07237 18-508 partner): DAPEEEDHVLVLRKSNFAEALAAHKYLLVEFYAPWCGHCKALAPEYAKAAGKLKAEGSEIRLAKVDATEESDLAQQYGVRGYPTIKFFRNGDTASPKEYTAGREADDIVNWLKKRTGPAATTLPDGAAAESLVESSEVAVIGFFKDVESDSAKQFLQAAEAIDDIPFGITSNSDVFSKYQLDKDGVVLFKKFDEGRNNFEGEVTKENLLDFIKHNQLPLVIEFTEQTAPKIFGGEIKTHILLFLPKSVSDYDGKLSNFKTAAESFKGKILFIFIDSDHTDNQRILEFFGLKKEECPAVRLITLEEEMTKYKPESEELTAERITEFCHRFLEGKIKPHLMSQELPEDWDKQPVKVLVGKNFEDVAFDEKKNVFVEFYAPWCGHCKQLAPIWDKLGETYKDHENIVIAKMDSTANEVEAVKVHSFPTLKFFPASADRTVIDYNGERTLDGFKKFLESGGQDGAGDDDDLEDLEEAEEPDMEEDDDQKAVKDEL

Compound	IC50 [1] [µM]	IC50 (human leukocyte elastase) [µM]	other results
CCCCCCCC/C=C\CCCCCCCC(=O)N1CCC[C@H]1C(=O)O [Example 1, 1-(1-oxo-9Z-octadecenyl)proline]	4.4	7.8	–
CCCCCCCC/C=C\CCCCCCCC(=O)N1CCCC(C(=O)O)C1 (stereo not shown) [Example 2, 1-(1-oxo-9Z-ocadecenyl)-3-piperidinecarboxylic acid]	5.9	3.4	–
CCCCCCCC/C=C\CCCCCCCC(=O)N1CCC(C(=O)O)CC1 [Example 3, 1-(1-oxo-9Z-octadecenyl)-4-piperidinecarboxylic acid]	9	4.6	–
CCCCCCCC/C=C\CCCCCCCC(=O)N1CCC(C(=O)OCC)(c2ccccc2)CC1 [Example 4, ethyl 1-(1-oxo-9Z-octadecenyl)-4-phenyl-4-piperidinecarboxylate]	–	–	inhibition against elastase (human leukocyte elastase; at 20 mcM): 22%
CCCCCCCC/C=C\CCCCCCCC(=O)N1CCC(C(=O)O)(c2ccccc2)CC1 [Example 5, 1-(1-oxo-9Z-octadecenyl)-4-phenyl-4-piperidinecarboxylic acid]	–	1.2	–
CCCCCCCC/C=C\CCCCCCCC(=O)N1CCC[C@H]1C(=O)OC [Example 6, 1-(1-oxo-9Z-octadecenyl)proline methyl ester]	–	–	Bleomycin-induced Fibrosis, % Inhib. of Hydroxyproline [2]: 30.1%; Bleomycin-induced Fibrosis, % Inhib. of Lung wt./body wt. [2]: 33.0%
